pIC50: −log10 of the molar value.
How the values were obtained:
ALK (h) = ALK (h) (Homo sapiens (Human), UniProt Q9UM73); test: Kinase assay, single dose inhibition (Millipore, 33P-ATP filter binding); format: biochemical; details: 0.1 μM test compound, 10 μM ATP; remaining activity relative to DMSO control = 100%
EGFR (h) = EGFR (h) (Homo sapiens (Human), UniProt P00533); test: as above; format: biochemical; details: 0.1 μM test compound, 10 μM ATP; remaining activity relative to DMSO control = 100%
Experimental: (§1) Assay conditions included 10 μM ATP and 100 nM test compounds.
(§2) All reactions are initiated by the addition of the MgATP mix. After incubation for 40 minutes at room temperature, the reaction is stopped by the addition of 3% phosphoric acid solution. 10 μL of the reaction is then spotted onto a P30 filtermat and washed three times for 5 minutes in 75 mM phosphoric acid and once in methanol prior to drying and scintillation counting. This assay is performed by Millipore. The experiment is carried out in duplicate. The value for the control sample (DMSO) was set to 100%, and the values for the compound-treated samples were expressed as activity relative to the control sample.

EGFR (L858R) (h) = EGFR (L858R) (h) (Homo sapiens (Human), UniProt P00533, L858R); test: as above; format: biochemical; details: 0.1 μM test compound, 10 μM ATP; remaining activity relative to DMSO control = 100%
Experimental: as §1, §2

EGFR (T790M) (h) = EGFR (T790M) (h) (Homo sapiens (Human), UniProt P00533, T790M); test: as above; format: biochemical; details: 0.1 μM test compound, 10 μM ATP; remaining activity relative to DMSO control = 100%
Experimental: as §1, §2

EGFR (T790M, L858R) (h) = EGFR (T790M, L858R) (h) (Homo sapiens (Human), UniProt P00533, L858R/T790M); test: as above; format: biochemical; details: 0.1 μM test compound, 10 μM ATP; remaining activity relative to DMSO control = 100%
Experimental: as §1, §2

[1] = tested on: H1975 (EGFR L858R/T790M) NSCLC cells; test: Cell proliferation assay (MTS cell viability); format: cell-based; details: Homo sapiens, NCI-H1975, 72 h; H1975 cells, 3 days of exposure, MTS
[2] = tested on: HCC827 (EGFR Del) NSCLC cells; test: Cell proliferation assay (MTS cell viability); format: cell-based; details: Homo sapiens, 72 h; HCC827 cells, 3 days of exposure, MTS
Experimental: (§3) Effects of test compounds on in vitro proliferation were measured by MTS cell viability assay.
(§4) Prepare test compounds in each well with a final medium volume of 200 μl;
Incubate for 3 days of exposure;
(§5) Prepare reagents following the instructions in the Cell Proliferation Assay kit (Promega);
(§6) Change to serum-free medium with a final volume of 100 l/well. Prepare a set of wells with medium only for background subtraction;
(§7) Add 20 μl MTS solution containing PMS to each well (final concentration of MTS will be 0.33 mg/ml);
(§8) Incubate 1 to 4 hours at 37° C. in a humidified, 5% CO2 atmosphere.
(§9) Record absorbance at 490 nm using VICTOR™ X5 plate reader (PerkinElmer).
(§10) All experimental points were set up in three wells and all experiments were repeated at least three times.

A431 (EGFR WT) cells = test: Cell proliferation assay (MTS cell viability); format: cell-based; details: Homo sapiens, A-431, 72 h, 3 days of exposure
Experimental: as §3
A431 cells were maintained in DMEM (Gibco) supplemented with 10% FBS, 100 units/mL penicillin, 100 units/mL streptomycin, and 2 mM glutamine.
as §4
Incubate for 3 days of exposure;
as §5, §6, §7, §8, §9, §10

[3] = tested on: A549 (EGFR WT) NSCLC cells; test: Cell proliferation assay (MTS cell viability); format: cell-based; details: Homo sapiens, 72 h; A549 cells, 3 days of exposure, MTS
Experimental: as §3
A549 cells were maintained in Ham's F12K medium (Gibco) supplemented with 10% FBS, 100 units/mL penicillin, 100 units/mL streptomycin, and 2 mM glutamine.
as §4
Incubate for 3 days of exposure;
as §5, §6, §7, §8, §9, §10

Sequence of EGFR (L858R) (h) (P00533 25-1210 L858R): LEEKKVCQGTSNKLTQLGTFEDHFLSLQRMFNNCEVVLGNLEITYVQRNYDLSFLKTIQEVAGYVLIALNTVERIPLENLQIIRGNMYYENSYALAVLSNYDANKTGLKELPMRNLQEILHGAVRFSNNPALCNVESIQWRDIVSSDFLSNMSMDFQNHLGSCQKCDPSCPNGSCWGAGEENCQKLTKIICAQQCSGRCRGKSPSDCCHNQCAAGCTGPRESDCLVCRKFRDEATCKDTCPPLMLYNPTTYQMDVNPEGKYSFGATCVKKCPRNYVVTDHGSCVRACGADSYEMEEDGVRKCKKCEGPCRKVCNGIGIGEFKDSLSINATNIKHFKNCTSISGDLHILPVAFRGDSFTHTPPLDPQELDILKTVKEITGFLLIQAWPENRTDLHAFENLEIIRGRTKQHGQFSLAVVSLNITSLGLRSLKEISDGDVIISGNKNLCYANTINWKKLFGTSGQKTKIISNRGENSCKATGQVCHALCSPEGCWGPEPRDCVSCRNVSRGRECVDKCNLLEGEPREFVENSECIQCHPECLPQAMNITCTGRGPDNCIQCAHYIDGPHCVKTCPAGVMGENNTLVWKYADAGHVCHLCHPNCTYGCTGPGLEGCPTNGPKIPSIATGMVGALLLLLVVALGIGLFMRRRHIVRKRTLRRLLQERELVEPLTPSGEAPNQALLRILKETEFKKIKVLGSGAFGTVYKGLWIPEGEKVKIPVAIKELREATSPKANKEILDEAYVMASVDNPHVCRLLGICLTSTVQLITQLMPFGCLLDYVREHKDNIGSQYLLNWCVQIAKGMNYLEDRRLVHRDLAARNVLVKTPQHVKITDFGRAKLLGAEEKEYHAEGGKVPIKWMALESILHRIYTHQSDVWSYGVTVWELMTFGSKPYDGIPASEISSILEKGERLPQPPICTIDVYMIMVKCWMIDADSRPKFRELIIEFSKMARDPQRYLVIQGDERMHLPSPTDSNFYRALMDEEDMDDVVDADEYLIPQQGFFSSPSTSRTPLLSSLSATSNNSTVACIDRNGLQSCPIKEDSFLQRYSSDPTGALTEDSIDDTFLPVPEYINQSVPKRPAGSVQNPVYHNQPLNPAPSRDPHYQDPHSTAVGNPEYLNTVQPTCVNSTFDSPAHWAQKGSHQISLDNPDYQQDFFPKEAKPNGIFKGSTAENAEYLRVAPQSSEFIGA
Sequence of EGFR (h) (P00533 25-1210): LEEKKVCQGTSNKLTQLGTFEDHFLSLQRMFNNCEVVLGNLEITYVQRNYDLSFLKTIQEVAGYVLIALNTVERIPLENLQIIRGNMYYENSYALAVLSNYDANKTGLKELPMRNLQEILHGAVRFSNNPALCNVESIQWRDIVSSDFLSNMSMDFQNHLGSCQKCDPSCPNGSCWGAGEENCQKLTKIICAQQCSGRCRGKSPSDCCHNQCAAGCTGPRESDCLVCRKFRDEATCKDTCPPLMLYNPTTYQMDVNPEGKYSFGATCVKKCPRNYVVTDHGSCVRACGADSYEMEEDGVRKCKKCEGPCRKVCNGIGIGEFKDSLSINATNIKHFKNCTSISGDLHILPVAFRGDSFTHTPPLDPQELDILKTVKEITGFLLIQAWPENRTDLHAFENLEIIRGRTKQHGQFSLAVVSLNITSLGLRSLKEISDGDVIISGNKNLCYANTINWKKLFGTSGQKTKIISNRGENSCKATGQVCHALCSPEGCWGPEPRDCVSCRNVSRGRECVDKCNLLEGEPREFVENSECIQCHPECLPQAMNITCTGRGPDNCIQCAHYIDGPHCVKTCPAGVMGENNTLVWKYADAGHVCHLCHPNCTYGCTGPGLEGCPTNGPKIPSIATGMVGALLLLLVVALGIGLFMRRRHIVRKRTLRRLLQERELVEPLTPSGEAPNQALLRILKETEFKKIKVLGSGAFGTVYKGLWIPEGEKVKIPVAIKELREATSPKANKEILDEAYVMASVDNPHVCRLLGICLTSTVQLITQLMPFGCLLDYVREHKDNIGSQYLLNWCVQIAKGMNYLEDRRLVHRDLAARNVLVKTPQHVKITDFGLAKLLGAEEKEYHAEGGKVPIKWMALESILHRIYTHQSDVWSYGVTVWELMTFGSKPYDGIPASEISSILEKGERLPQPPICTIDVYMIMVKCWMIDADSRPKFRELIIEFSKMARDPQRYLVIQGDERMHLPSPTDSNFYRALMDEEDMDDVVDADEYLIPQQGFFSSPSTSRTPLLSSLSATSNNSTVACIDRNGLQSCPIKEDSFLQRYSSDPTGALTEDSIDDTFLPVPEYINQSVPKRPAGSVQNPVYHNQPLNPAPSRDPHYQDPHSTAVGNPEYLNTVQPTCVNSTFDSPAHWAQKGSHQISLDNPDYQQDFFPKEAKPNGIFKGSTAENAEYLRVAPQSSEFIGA
Sequence of ALK (h) (Q9UM73 19-1620): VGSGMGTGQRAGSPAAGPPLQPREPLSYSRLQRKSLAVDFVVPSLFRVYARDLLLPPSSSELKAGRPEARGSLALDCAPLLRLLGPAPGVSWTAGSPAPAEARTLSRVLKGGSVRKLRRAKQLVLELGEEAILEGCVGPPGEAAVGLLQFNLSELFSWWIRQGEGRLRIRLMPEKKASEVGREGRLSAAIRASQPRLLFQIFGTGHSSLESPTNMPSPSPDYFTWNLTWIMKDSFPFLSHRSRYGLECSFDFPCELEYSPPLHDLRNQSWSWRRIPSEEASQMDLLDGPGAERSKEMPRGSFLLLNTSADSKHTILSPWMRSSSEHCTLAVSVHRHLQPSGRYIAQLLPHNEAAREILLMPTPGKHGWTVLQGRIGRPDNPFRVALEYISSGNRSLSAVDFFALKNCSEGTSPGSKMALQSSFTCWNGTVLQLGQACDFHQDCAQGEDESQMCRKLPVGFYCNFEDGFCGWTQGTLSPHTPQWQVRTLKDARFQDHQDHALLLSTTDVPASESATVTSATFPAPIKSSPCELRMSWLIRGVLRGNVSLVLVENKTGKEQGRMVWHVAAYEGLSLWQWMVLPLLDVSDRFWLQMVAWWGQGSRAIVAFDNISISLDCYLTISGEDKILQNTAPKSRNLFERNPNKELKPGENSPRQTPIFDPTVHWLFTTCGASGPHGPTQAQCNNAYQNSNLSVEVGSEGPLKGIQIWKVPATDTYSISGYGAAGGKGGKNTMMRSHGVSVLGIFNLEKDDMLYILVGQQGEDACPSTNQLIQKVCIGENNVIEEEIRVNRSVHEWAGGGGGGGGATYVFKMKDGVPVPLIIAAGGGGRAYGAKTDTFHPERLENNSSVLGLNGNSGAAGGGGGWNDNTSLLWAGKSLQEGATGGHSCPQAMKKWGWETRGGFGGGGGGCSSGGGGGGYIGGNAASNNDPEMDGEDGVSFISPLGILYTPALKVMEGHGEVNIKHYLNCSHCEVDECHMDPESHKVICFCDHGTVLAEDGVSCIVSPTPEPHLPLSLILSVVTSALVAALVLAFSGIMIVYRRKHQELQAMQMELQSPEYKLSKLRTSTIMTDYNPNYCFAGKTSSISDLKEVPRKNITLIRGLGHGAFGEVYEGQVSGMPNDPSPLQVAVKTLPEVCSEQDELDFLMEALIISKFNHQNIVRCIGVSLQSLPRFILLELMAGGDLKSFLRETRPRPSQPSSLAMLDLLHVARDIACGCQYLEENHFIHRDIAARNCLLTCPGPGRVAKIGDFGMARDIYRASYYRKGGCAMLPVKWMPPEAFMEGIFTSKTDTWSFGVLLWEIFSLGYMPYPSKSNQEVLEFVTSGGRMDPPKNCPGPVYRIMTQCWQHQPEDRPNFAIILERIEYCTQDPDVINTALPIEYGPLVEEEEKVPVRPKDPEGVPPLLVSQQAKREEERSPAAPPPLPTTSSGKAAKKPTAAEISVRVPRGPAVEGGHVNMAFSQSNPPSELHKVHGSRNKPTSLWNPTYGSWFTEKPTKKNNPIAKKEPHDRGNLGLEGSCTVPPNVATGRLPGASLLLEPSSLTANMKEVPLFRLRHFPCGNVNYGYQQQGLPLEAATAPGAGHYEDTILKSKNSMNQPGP

SMILES | Activity (control) % ALK (h) (ALK (h)) [%] | Activity (control) % EGFR (h) (EGFR (h)) [%] | Activity (control) % EGFR (L858R) (h) (EGFR (L858R) (h)) [%] | Activity (control) % EGFR (T790M) (h) (EGFR (T790M) (h)) [%] | Activity (control) % EGFR (T790M, L858R) (h) (EGFR (T790M, L858R) (h)) [%] | pIC50 [1] | pIC50 [2] | pIC50 (A431 (EGFR WT) cells) | pIC50 [3]
C=C(CN(C)CCN(C)C)C(=O)Nc1ccc(OC)c(Nc2ncc(Cl)c(Nc3ccccc3C(=O)C(=O)N(C)C)n2)c1 [Example 126, N-(3-(5-chloro-4-(2-(2-(dimethylamino)-2-oxoactyl)phenylamino)pyrimidin-2-ylamino)-4-methoxyphenyl)-2-(((2-(dimethylamino)ethyl)(methyl)amino)methyl)acrylamide] | 19 | 93 | 47 | 5 | 2 | 8.00 | 7.70 | 6.68 | –
C=CC(=O)Nc1cc(Nc2ncc(Cl)c(Nc3ccccc3C(=O)C(=O)NC)n2)c(F)cc1OC [Example 68, N-(5-(5-chloro-4-(2-(2-(methylamino)-2-oxoacetyl)phenylamino)pyrimidin-2-ylamino)-4-fluoro-2-methoxyphenyl)acrylamide] | – | – | – | – | – | 6.19 | 5.92 | – | < 5.52
COc1cc(N2CCC(N(C)C)CC2)ccc1Nc1ncc(C(F)(F)F)c(Nc2ccccc2C(=O)C(=O)N2CCOCC2)n1 [Example 45, 1-(2-(2-(4-(4-(dimethylamino)piperidin-1-yl)-2-methoxyphenylamino)-5-(trifluoromethyl)pyrimidin-4-ylamino)phenyl)-2-morpholinoethane-1,2-dione] | – | – | – | – | – | < 5.52 | < 5.52 | – | < 5.52
C=CC(=O)Nc1cc(Nc2ncc(Cl)c(Nc3ccccc3C(=O)C(=O)N(C)C)n2)c(F)cc1OC [Example 69, N-(5-(5-chloro-4-(2-(2-(dimethylamino)-2-oxoactyl)phenylamino)pyrimidin-2-ylamino)-4-fluoro-2-methoxyphenyl)acrylamide] | – | – | – | – | – | 6.51 | 5.92 | – | < 5.52
COc1cc(N2CCC(N(C)C)CC2)ccc1Nc1ncc(Cl)c(Nc2ccccc2C(=O)C(=O)NO)n1 [Example 3, 2-(2-(5-chloro-2-(4-(4-(dimethylamino)piperidin-1-yl)-2-methoxyphenylamino)pyrimidin-4-ylamino)phenyl)-N-hydroxy-2-oxoacetamide] | – | – | – | – | – | 6.08 | 6.03 | – | < 5.52
COc1cc(N2CCN(C(C)=O)CC2)ccc1Nc1ncc(Cl)c(Nc2ccccc2C(=O)C(=O)N2CCOCC2)n1 [Example 42, 1-(2-(2-(4-(4-acetylpiperazin-1-yl)-2-methoxyphenylamino)-5-chloropyrimidin-4-ylamino)phenyl)-2-morpholinoethane-1,2-dione] | – | – | – | – | – | < 5.52 | < 5.52 | – | < 5.52
C=CC(=O)N1CCC(NC(=O)C(=O)c2ccccc2Nc2nc(Nc3ccc(F)c(OC)c3)ncc2Cl)CC1 [Example 59, N-(1-acryloylpiperidin-4-yl)-2-(2-(5-chloro-2-(4-fluoro-3-methoxyphenylamino)pyrimidin-4-ylamino)phenyl)-2-oxoacetamide] | – | – | – | – | – | 6.72 | < 5.52 | – | < 5.52
COc1cc(N2CCN(C)CC2)ccc1Nc1ncc(Cl)c(Nc2ccccc2C(=O)C(=O)N2CCOCC2)n1 [Example 44, 1-(2-(5-chloro-2-(2-methoxy-4-(4-methylpiperazin-1-yl)phenylamino)pyrimidin-4-ylamino)phenyl)-2-morpholinoethane-1,2-dione] | – | – | – | – | – | 5.91 | 5.63 | – | < 5.52
COc1cc(N2CCN(C)CC2)ccc1Nc1ncc(Cl)c(Nc2ccccc2C(=O)C(=O)N(C)C)n1 [Example 46, 2-(2-(5-chloro-2-(2-methoxy-4-(4-methylpiperazin-1-yl)phenylamino)pyrimidin-4-ylamino)phenyl)-N,N-dimethyl-2-oxoacetamide] | – | – | – | – | – | 6.09 | 5.79 | – | < 5.52
COc1cc(Nc2ncc(Cl)c(Nc3ccccc3C(=O)C(=O)N(C)C)n2)ccc1F [Example 62, 2-(2-(5-chloro-2-(4-fluoro-3-methoxyphenylamino)pyrimidin-4-ylamino)phenyl)-N,N-dimethyl-2-oxoacetamide] | – | – | – | – | – | < 5.52 | 5.63 | – | < 5.52
C=CC(=O)Nc1ccc(OC)c(Nc2ncc(Cl)c(Nc3ccccc3C(=O)C(=O)N(CC)CC)n2)c1 [Example 131, N-(3-(5-chloro-4-(2-(2-(diethylamino)-2-oxoacetyl)phenylamino)pyrimidin-2-ylamino)-4-methoxyphenyl)acrylamide] | 9 | 104 | 104 | 82 | 27 | 8.00 | 7.30 | 6.12 | –
C/C=C/C(=O)Nc1ccc(OC)c(Nc2ncc(Cl)c(Nc3ccccc3C(=O)C(=O)N(C)C)n2)c1 [Example 70, (E)-N-(3-(5-chloro-4-(2-(2-(dimethylamino)-2-oxoacetyl)phenylamino)pyrimidin-2-ylamino)-4-methoxyphenyl)but-2-enamide] | – | – | – | – | – | 6.51 | 5.98 | – | 5.86
COc1cc(N2CCC(N(C)C)CC2)ccc1Nc1ncc(Cl)c(Nc2ccccc2C(=O)C(N)=O)n1 [Example 4, 2-(2-(5-chloro-2-(4-(4-(dimethylamino)piperidin-1-yl)-2-methoxyphenylamino)pyrimidin-4-ylamino)phenyl)-2-oxoacetamide] | 8 | 65 | 8 | 4 | 2 | < 5.52 | 5.58 | – | < 5.52
C=CC(=O)Nc1cccc(Nc2ncc(Cl)c(Nc3ccccc3C(=O)C(=O)N(C)C)n2)c1 [Example 40, N-(3-(5-chloro-4-(2-(2-(dimethylamino)-2-oxoacetyl)phenylamino)pyrimidin-2-ylamino)phenyl)acrylamide] | 28 | 106 | 103 | 79 | 24 | 8.00 | 7.15 | – | 6.19
COc1cc(N2CCN(C)CC2)ccc1Nc1ncc(C(F)(F)F)c(Nc2ccccc2C(=O)C(=O)N2CCOCC2)n1 [Example 43, 1-(2-(2-(2-methoxy-4-(4-methylpiperazin-1-yl)phenylamino)-5-(trifluoromethyl)pyrimidin-4-ylamino)phenyl)-2-morpholinoethane-1,2-dione] | – | – | – | – | – | < 5.52 | < 5.52 | – | < 5.52
CNC(=O)C(=O)c1ccccc1Nc1nc(Nc2ccc(N3CCN(C)CC3)c(OC)c2)ncc1Cl [Example 60, 2-(2-(5-chloro-2-(3-methoxy-4-(4-methylpiperazin-1-yl)phenylamino)pyrimidin-4-ylamino)phenyl)-N-methyl-2-oxoacetamide] | – | – | – | – | – | 6.82 | 6.06 | – | 5.68
CNC(=O)C(=O)c1ccccc1Nc1nc(Nc2ccc(N3CCN(C)CC3)cc2OC)ncc1Cl [Example 47, 2-(2-(5-chloro-2-(2-methoxy-4-(4-methylpiperazin-1-yl)phenylamino)pyrimidin-4-ylamino)phenyl)-N-methyl-2-oxoacetamide] | – | – | – | – | – | < 5.52 | < 5.52 | – | < 5.52
C=CC(=O)Nc1cccc(Nc2ncc(Cl)c(Nc3ccccc3C(=O)C(=O)NC)n2)c1 [Example 57, N-(3-(5-chloro-4-(2-(2-(methylamino)-2-oxoacetyl)phenylamino)pyrimidin-2-ylamino)phenyl)acrylamide] | – | – | – | – | – | 7.00 | 6.57 | – | < 5.52
CNC(=O)C(=O)c1ccccc1Nc1nc(Nc2ccc(F)c(OC)c2)ncc1Cl [Example 63, 2-(2-(5-chloro-2-(4-fluoro-3-methoxyphenylamino)pyrimidin-4-ylamino)phenyl)-N-methyl-2-oxoacetamide] | – | – | – | – | – | 6.19 | < 5.52 | – | < 5.52
COc1cc(N2CCC(N(C)C)CC2)ccc1Nc1ncc(Cl)c(Nc2ccccc2C(=O)C(=O)N(C)C)n1 [Example 17, 2-(2-((5-chloro-2-((4-(4-(dimethylamino)piperidin-1-yl)-2-methoxyphenyl)amino)pyrimidin-4-yl)amino)phenyl)-N,N-dimethyl-2-oxoacetamide] | – | – | – | – | – | 6.07 | 5.91 | 6.59 | < 5.52
C=CC(=O)Nc1cc(Nc2ncc(Cl)c(Nc3ccccc3C(=O)C(=O)NC)n2)ccc1OC [Example 64, N-(5-(5-chloro-4-(2-(2-(methylamino)-2-oxoacetyl)phenylamino)pyrimidin-2-ylamino)-2-methoxyphenyl)acrylamide] | 47 | 106 | 100 | 79 | 39 | 7.05 | 6.35 | – | < 5.52
CNC(=O)C(=O)c1ccccc1Nc1nc(Nc2ccc(N3CCC(N(C)C)CC3)cc2OC)ncc1Cl [Example 16, 2-(2-((5-chloro-2-((4-(4-(dimethylamino)piperidin-1-yl)-2-methoxyphenyl)amino)pyrimidin-4-yl)amino)phenyl)-N-methyl-2-oxoacetamide] | – | – | – | – | – | 5.95 | 6.05 | – | < 5.52

Source: patent US10059688B2, “Protein tyrosine kinase modulators and methods of use” (BETTA PHARMACEUTICALS CO., LTD., priority 2013, dated 2018)
